Chromatographic logP and pest or weed control data for 37 compounds are collected here from US8536202B2, “Triazole-substituted anthranilamides as pesticides” (Bayer Cropscience AG, priority 2010, dated 2013).

Read-outs that look alike come from different tables or passages of the source.

Series [1] in a line: log P determination by HPLC on reversed-phase columns (EEC Directive 79/831 Annex V.A8). The class given is physicochemical. As to conditions: pH 2.7. The protocol:
Determination by LC-MS in the acidic range takes place at a pH of 2.7 using 0.1% aqueous formic acid and acetonitrile (containing 0.1% formic acid) as eluents, with a linear gradient from 10% acetonitrile to 95% acetonitrile.
Calibration was carried out using unbranched alkan-2-ones (having 3 to 16 carbon atoms) with known log P values (the log P values are determined from the retention times by linear interpolation between two successive alkanones).

Series [2] deals with caterpillars of the armyworm (Spodoptera frugiperda). The series can be described thus: Spodoptera frugiperda test (SPODFR spray treatment). The class given is in vivo. To be noted: 168 h, 100 g/ha, after 7 days, read-out: activity in %. The protocol:
Solvents: 78.0 parts by weight of acetone • • 1.5 parts by weight of dimethylformamide
Emulsifier: 0.5 part by weight of alkylaryl polyglycol ether
An appropriate preparation of active compound is prepared by mixing 1 part by weight of active compound with the stated amounts of solvent and emulsifier and diluting the concentrate with emulsifier-containing water to the desired concentration.
Leaf discs of maize (Zea mays) are sprayed with a preparation of active compound at the desired concentration and, after drying, are populated with caterpillars of the armyworm (Spodoptera frugiperda).
After 7 days, the activity in % is ascertained. Here, 100% means that all of the caterpillars have been killed; 0% means that no caterpillar has been killed.

In series [1], `Cc1cc(C#N)cc(C(=O)NC(C)(C)C)c1NC(=O)c1cc(Cn2nnc3c(Cl)c(Cl)c(Cl)c(Cl)c32)nn1-c1ncccc1Cl` [Example 104] showed a chromatographic logP of 4.64.

`CNC(=O)c1cc(Cl)cc(C)c1NC(=O)c1cc(Cn2cc(C3CC3)nn2)nn1-c1ncccc1Cl` [Example 13]: the chromatographic logP in series [1] came to 2.14.

Regarding `CNC(=O)c1cc(Cl)cc(C)c1NC(=O)c1cc(Cn2cc(C(C)(C)C)nn2)nn1-c1ncccc1Cl` [Example 15], in series [1], the chromatographic logP was found to be 2.53.

Turning to `CNC(=O)c1cc(Cl)cc(C)c1NC(=O)c1cc(Cn2nnc3cc(Cl)c(Cl)cc32)nn1-c1ncccc1Cl` [Example 76], the chromatographic logP in series [1] stood at 3.33.

In series [1], `Cc1cc(C#N)cc(C(=O)NC(C)(C)C)c1NC(=O)c1cc(Cn2cc(C(C)C)nn2)nn1-c1ncccc1Cl` [Example 51] showed a chromatographic logP of 2.74.

`CNC(=O)c1cc(C#N)cc(C)c1NC(=O)c1cc(Cn2nc3c(Cl)c(Cl)c(Cl)c(Cl)c3n2)nn1-c1ncccc1Cl` [Example 93]: the chromatographic logP in series [1] stood at 4.24.

In series [1], `Cc1cc(Cl)cc(C(=O)NC(C)C)c1NC(=O)c1cc(Cn2ccnn2)nn1-c1ncccc1Cl` [Example 116] showed a chromatographic logP of 2.12.

In the case of `Cc1cc(C#N)cc(C(=O)NC(C)(C)C)c1NC(=O)c1cc(Cn2ncc(C3CC3)n2)nn1-c1ncccc1Cl` [Example 58], the pest or weed control at 100 g/ha in series [2] turned out to be 100%. In series [1], this compound registered a chromatographic logP of 3.12.

As to `Cc1cc(Cl)cc(C(=O)NC(C)(C)C)c1NC(=O)c1cc(Cn2cc(C(F)(F)F)nn2)nn1-c1ncccc1Cl` [Example 191], in series [2], the pest or weed control at 100 g/ha turned out to be 100%. In series [1], the chromatographic logP turned out to be 3.44.

Compound `Cc1cc(C#N)cc(C(=O)NC(C)(C)C)c1NC(=O)c1cc(Cn2ncc(C(C)C)n2)nn1-c1ncccc1Cl` [Example 59] yielded a chromatographic logP in series [1] of 3.38.

Take `Cc1cc(F)cc(C(=O)NC(C)(C)C)c1NC(=O)c1cc(Cn2ncc(C(F)(F)F)n2)nn1-c1ncccc1Cl` [Example 171]: the pest or weed control at 100 g/ha in series [2] is 100%. This compound also showed a chromatographic logP in series [1] of 4.02.

In the case of `CNC(=O)c1cc(Cl)cc(C)c1NC(=O)c1cc(Cn2nc3c(Cl)c(Cl)c(Cl)c(Cl)c3n2)nn1-c1ncccc1Cl` [Example 85], the chromatographic logP in series [1] turned out to be 4.66.

`Cc1cc(C#N)cc(C(=O)NC(C)(C)C)c1NC(=O)c1cc(Cn2cc(C(C)(C)C)nn2)nn1-c1ncccc1Cl` [Example 52] came in with a chromatographic logP in series [1] of 3.02.

For `Cc1cc(C#N)cc(C(=O)NC2CC2)c1NC(=O)c1cc(Cn2cc(C(F)(F)F)nn2)nn1-c1ncccc1Cl` [Example 179], in series [1], the chromatographic logP came to 2.5.

Regarding `CNC(=O)c1cc(Cl)cc(C)c1NC(=O)c1cc(Cn2nc3ccccc3n2)nn1-c1ncccc1Cl` [Example 67], in series [2], the pest or weed control at 100 g/ha was 100%. In series [1], the chromatographic logP is 2.75.

Regarding `CNC(=O)c1cc(C#N)cc(C)c1NC(=O)c1cc(Cn2nc3ccc(F)cc3n2)nn1-c1ncccc1Cl` [Example 83], the pest or weed control at 100 g/ha in series [2] is 100%. In series [1], this compound displayed a chromatographic logP of 2.55.

With `Cc1cc(C#N)cc(C(=O)NC(C)(C)C)c1NC(=O)c1cc(Cn2nnc3cc([N+](=O)[O-])ccc32)nn1-c1ncccc1Cl` [Example 115], the pest or weed control at 100 g/ha in series [2] came to 100%. In addition, the chromatographic logP in series [1] came out at 3.03.

For the compound `CNC(=O)c1cc(C#N)cc(C)c1NC(=O)c1cc(Cn2nnc3ccc(F)cc32)nn1-c1ncccc1Cl` [Example 82], the pest or weed control at 100 g/ha in series [2] was 100%. In addition, the chromatographic logP in series [1] was 2.24.

On to `CNC(=O)c1cc(Cl)cc(C)c1NC(=O)c1cc(Cn2nnc3c(Cl)c(Cl)c(Cl)c(Cl)c32)nn1-c1ncccc1Cl` [Example 84], for which, in series [2], the pest or weed control at 100 g/ha is 100%. The chromatographic logP in series [1] was found to be 4.19.

`Cc1cc(C#N)cc(C(=O)NC(C)(C)C)c1NC(=O)c1cc(Cn2nc3c(Cl)c(Cl)c(Cl)c(Cl)c3n2)nn1-c1ncccc1Cl` [Example 105] registered a chromatographic logP in series [1] of 5.13.

In the case of `Cc1cc(Cl)cc(C(=O)NC(C)(C)C)c1NC(=O)c1cc(Cn2ncc(C(C)(C)C)n2)nn1-c1ncccc1Cl` [Example 48], the chromatographic logP in series [1] was 4.25.

Turning to `CNC(=O)c1cc(Cl)cc(C)c1NC(=O)c1cc(Cn2ncc(C(C)(C)C)n2)nn1-c1ncccc1Cl` [Example 23], the pest or weed control at 100 g/ha in series [2] was 83%. Further, the chromatographic logP in series [1] was found to be 3.2.

With `O=C(NC1CC1)c1cc(Cl)cc(Cl)c1NC(=O)c1cc(Cn2cc(C(F)(F)F)nn2)nn1-c1ncccc1Cl` [Example 199], in series [2], the pest or weed control at 100 g/ha was 100%. Besides, the chromatographic logP in series [1] is 2.89.

As for `CNC(=O)c1cc(Cl)cc(C)c1NC(=O)c1cc(Cn2nnc3ccccc32)nn1-c1ncccc1Cl` [Example 66], the pest or weed control at 100 g/ha in series [2] was found to be 100%. This compound also showed a chromatographic logP in series [1] of 2.38.

As for `CNC(=O)c1cc(Cl)cc(C)c1NC(=O)c1cc(Cn2nc3ccc(C)cc3n2)nn1-c1ncccc1Cl` [Example 73], the chromatographic logP in series [1] was found to be 3.05.

`CCNC(=O)c1cc(C#N)cc(C)c1NC(=O)c1cc(Cn2cc(C(F)(F)C(F)(F)C(F)(F)F)nn2)nn1-c1ncccc1Cl` [Example 330]: the chromatographic logP in series [1] (HPLC on reversed-phase columns (C 18), EEC Directive 79/831 Annex V.A8, read-out: logP) was found to be 3.24.

On to `CNC(=O)c1cc(C#N)cc(C)c1NC(=O)c1cc(Cn2nnc3cc([N+](=O)[O-])ccc32)nn1-c1ncccc1Cl` [Example 103], for which the pest or weed control at 100 g/ha in series [2] worked out at 100%. This compound displayed a chromatographic logP in series [1] of 2.34.

On to `Cc1cc(Cl)cc(C(=O)NC2CC2)c1NC(=O)c1cc(Cn2cc(C(F)(F)F)nn2)nn1-c1ncccc1Cl` [Example 188], for which the chromatographic logP in series [1] turned out to be 2.82.

`Cc1cc(C#N)cc(C(=O)NC(C)(C)C)c1NC(=O)c1cc(Cn2ncc(C(F)(F)F)n2)nn1-c1ncccc1Br` [Example 10]: in series [2], the pest or weed control at 100 g/ha came to 100%. For the same compound, in series [1] (reversed-phase C18 HPLC column, HPLC on reversed-phase columns (C 18), EEC Directive 79/831 Annex V.A8, read-out: logP), the chromatographic logP worked out at 3.04.

On to `CNC(=O)c1cc(Cl)cc(C)c1NC(=O)c1cc(Cn2nnc3cc(Cl)ccc32)nn1-c1ncccc1Cl` [Example 68], for which the pest or weed control at 100 g/ha in series [2] is 100%. Further, the chromatographic logP in series [1] is 2.9.

For `Cc1cc(C#N)cc(C(=O)NC(C)(C)C)c1NC(=O)c1cc(Cn2ncc(C(C)(C)C)n2)nn1-c1ncccc1Cl` [Example 60], the chromatographic logP in series [1] came out at 3.74.

With `CNC(=O)c1cc(Cl)cc(C)c1NC(=O)c1cc(Cn2nnc3cc(C)ccc32)nn1-c1ncccc1Cl` [Example 69], the pest or weed control at 100 g/ha in series [2] was found to be 100%. In series [1], this compound returned a chromatographic logP of 2.63.

`CC(C)NC(=O)c1cc(Cl)cc(Cl)c1NC(=O)c1cc(Cn2cc(C(F)(F)F)nn2)nn1-c1ncccc1Cl` [Example 200]: the pest or weed control at 100 g/ha in series [2] was found to be 100%. For the same compound, the chromatographic logP in series [1] came to 3.1.

On to `CNC(=O)c1cc(C#N)cc(C)c1NC(=O)c1cc(Cn2cc(-c3ccccc3Cl)nn2)nn1-c1ncccc1Cl` [Example 35], for which the pest or weed control at 100 g/ha in series [2] amounted to 100%. Moreover, in series [1], the chromatographic logP amounted to 2.63.

With `Cc1cc(Cl)cc(C(=O)NC(C)(C)C)c1NC(=O)c1cc(Cn2ncc(-c3ccc(Cl)cc3)n2)nn1-c1ncccc1Cl` [Example 49], the chromatographic logP in series [1] came out at 4.58.

Turning to `Cc1cc(Cl)cc(C(=O)NC(C)(C)C)c1NC(=O)c1cc(Cn2ncc(C(C)C)n2)nn1-c1ncccc1Cl` [Example 47], the chromatographic logP in series [1] was found to be 3.86.

Take `Cc1cc(Br)cc(C(=O)NC(C)C2CC2)c1NC(=O)c1cc(Cn2ncc(C(F)(F)F)n2)nn1-c1ncccc1Cl` (stereo not drawn) [Example 173]: the chromatographic logP in series [1] stood at 3.87.
